{
  "source": "patent US7803825B2",
  "about": "“Aminoalkylazole derivatives as histamine-3 antagonists” (Wyeth LLC, priority 2007, dated 2010)",
  "note": "Counter-ions that a name gives are not always drawn.",
  "data": [
    {"target": "T1, histamine-3 (H3) receptor (Homo sapiens, UniProt Q9Y5N1)", "T1 construct": "expressed in transfected cells; host or cells: HEK293T", "T1 sequence (Q9Y5N1 whole entry)": "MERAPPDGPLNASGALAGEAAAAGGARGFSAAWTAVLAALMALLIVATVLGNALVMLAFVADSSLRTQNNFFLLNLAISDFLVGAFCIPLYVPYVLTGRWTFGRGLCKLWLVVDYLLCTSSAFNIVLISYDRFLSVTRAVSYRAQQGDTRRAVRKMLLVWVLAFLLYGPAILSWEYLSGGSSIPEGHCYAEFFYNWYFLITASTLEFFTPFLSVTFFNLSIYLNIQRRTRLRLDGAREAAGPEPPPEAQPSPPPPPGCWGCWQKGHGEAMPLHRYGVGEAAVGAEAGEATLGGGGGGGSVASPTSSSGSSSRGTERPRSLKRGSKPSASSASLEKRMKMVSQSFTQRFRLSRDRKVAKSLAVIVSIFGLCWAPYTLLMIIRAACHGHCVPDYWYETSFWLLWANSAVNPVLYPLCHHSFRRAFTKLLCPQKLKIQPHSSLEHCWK", "assay": "Methyl Histamine Binding in Human Histamine-3 Receptor Cell Line", "conditions": "membranes of stably transfected HEK293T cells, radioligand 1 nM, Ki from IC50 by Cheng-Prusoff", "method": "Evaluation of Methyl Histamine Binding in Human Histamine-3 Receptor Cell Line\nThe affinity of test compounds for the histamine-3 (H3) receptor is evaluated in the following manner. Stably transfected HEK293T cells are grown in DMEM containing 10% heat inactivated FBS and G-418 (500 ug/ml). Cells are scraped from the plate, transferred to centrifuge tubes, washed one time in PBS by centrifugation in a Sorvall RT7 Plus centrifuge (2000 rpm 10 minutes, 4° C.). The resulting pellets are stored at 80° C. until ready for use. Cells are re-suspended in buffer (50 mM Tris pH=7.5) and placed in a Dounce homogenizer, douncing ten times to homogenize cells. The homogenate is spun down by centrifugation (Sorvall RT7 Plus, 1800 rpm 10 minutes, 4° C.). The supernatant is placed in a Corex tube and spun down by centrifugation (Sorvall RC 5c Plus, 17,000 rpm 20 minutes, 4° C.). The pellet is resuspended in buffer (50 mM Tris, pH 7.5). Protein concentration (ug/ul) is determined using the Micro-BCA Protein Determination. The binding assay is set up in a 96 well microtiter plate in a total volume of 250 uL. Non-specific binding is determined in the presence of 10 uM clobenpropit. The final radioligand concentration is 1 nM. The test compound is serially diluted using the Beckman Biomek2000 to a final approximate range of 100 uM to 100 pM. Membranes are suspended in buffer, homogenized in 2 bursts of ten seconds using a Vitris mechanical homogenizer set at power setting 5. Ten μg of membranes are added to each well. Following a one hour incubation at 30° C., the reaction is terminated by the addition of ice cold buffer and rapid filtration with a Packard Filtermate Harvester through a GF/B filter pre-soaked with 1% PEI for one hour. The plate is dried for one hour at 37° C. and 60 μL Microscint Scintillant is added to each well. The CPM per well is measured on a Packard Top Count NXT. Ki values are determined in nM. The Ki is calculated from the IC50 (i.e. the concentration of competing ligand which displaces 50% of the specific binding of the radioligand). CPM values are expressed as % specific binding and plotted vs compound concentration. A curve is fitted using a four-parameter logistic fit and the IC50 value is determined. The Ki is calculated from this using the Cheng-Prusoff equation: […]=IC50/1+(L/Kd) where L=concentration of free radioligand used in the assay, and Kd is the dissociation constant of the radioligand for the receptor. L is determined for each experiment by counting an aliquot of the diluted radioligand (corresponding to that added to each well) and the Kd has previously been determined under identical conditions for this cell line/radioligand.", "units": {"Ki": "nM"}, "values": [
      {"smiles": "Brc1oc(-c2ccc(Cn3cnc4ccccc43)cc2)nc1CN1CCCC1", "note": "[Example 29, 1-{4-[5-bromo-4-(pyrrolidin-1-ylmethyl)-1,3-oxazol-2-yl]benzyl}-1H-benzimidazole]", "Ki": "25.1 to 50"},
      {"smiles": "F[C@H]1CCN(Cc2coc(-c3ccc(Cn4cnc5ccccc54)cc3)n2)C1", "note": "[Example 22, 1-[4-(4-{[(3S)-3-fluoropyrrolidin-1-yl]methyl}-1,3-oxazol-2-yl)benzyl]-1H-benzimidazole]", "Ki": "10.1 to 25"},
      {"smiles": "c1ccc2c(c1)ncn2Cc1ccc(-c2nc(CN3CCCC3)cs2)cc1", "note": "[Example 71, 1-{4-[4-(Pyrrolidin-1-ylmethyl)-1,3-thiazol-2-yl]benzyl}-1H-benzimidazole Hydrochloride]", "Ki": "10.1 to 25"},
      {"smiles": "CC1CCCN(Cc2coc(-c3ccc(Cn4cnc5ccccc54)cc3)n2)C1", "note": "(stereo not drawn) [Example 16]", "Ki": "≤ 10"},
      {"smiles": "NCc1ccc2c(cnn2Cc2ccc(-c3nc(CN4CCCC4)co3)cc2)c1", "note": "[Example 102, 1-(1-{4-[4-(pyrrolidin-1-ylmethyl)-1,3-oxazol-2-yl]benzyl}-1H-indazol-5-yl)methanamine]", "Ki": "≤ 10"},
      {"smiles": "CCN(C)Cc1coc(-c2ccc(-n3cnc4ccccc43)cc2)n1", "note": "[Example 39]", "Ki": "10.1 to 25"},
      {"smiles": "c1ccc2c(c1)ncn2-c1ccc(-c2nc(CN3CCCCCC3)co2)cc1", "note": "[Example 44, 1-{4-[4-(azepan-1-ylmethyl)-1,3-oxazol-2-yl]phenyl}-1H-benzimidazole]", "Ki": "25.1 to 50"},
      {"smiles": "c1ccc2c(c1)ncn2Cc1ccc(-c2nc(CN3CCCCC3)cs2)cc1", "note": "[Example 73, 1-{4-[4-(piperidin-1-ylmethyl)-1,3-thiazol-2-yl]benzyl}-1H-benzimidazole]", "Ki": "≤ 10"},
      {"smiles": "CC1CCCN1Cc1coc(-c2ccc(Cn3cnc4ccccc43)cc2)n1", "note": "(stereo not drawn) [Example 13, 1-(4-{4-[(2-methylpyrrolidin-1-yl)methyl]-1,3-oxazol-2-yl}benzyl)-1H-benzimidazole]", "Ki": "≤ 10"},
      {"smiles": "c1ccc(-c2nc3ccccc3n2Cc2ccc(-c3nc(CN4CCCCCC4)co3)cc2)cc1", "note": "[Example 121, 1-{4-[4-(azepan-1-ylmethyl)-1,3-oxazol-2-yl]benzyl}-2-phenyl-1H-benzimidazole]", "Ki": "25.1 to 50"},
      {"smiles": "c1ccc2c(c1)ncn2Cc1ccc(-c2ncc(CN3CCCC3)o2)cc1", "note": "[Example 104, 1-{4-[5-(pyrrolidin-1-ylmethyl)-1,3-oxazol-2-yl]benzyl}-1H-benzimidazole]", "Ki": "> 100"},
      {"smiles": "CN1CCN(Cc2coc(-c3ccc(-n4cnc5ccccc54)cc3)n2)CC1", "note": "[Example 41, 1-(4-{4-[(4-methylpiperazin-1-yl)methyl]-1,3-oxazol-2-yl}phenyl)-1H-benzimidazole]", "Ki": "> 100"},
      {"smiles": "CC1CCCN1Cc1coc(-c2ccc(-n3cnc4ccccc43)cc2)n1", "note": "(stereo not drawn) [Example 43, 1-(4-{4-[(2-methylpyrrolidin-1-yl)methyl]-1,3-oxazol-2-yl}phenyl)-1H-benzimidazole]", "Ki": "10.1 to 25"},
      {"smiles": "Cn1c(CN2CCCC2)cnc1-c1ccc(F)cc1", "note": "[Example 145, 2-(4-Fluoro-phenyl)-1-methyl-5-pyrrolidin-1-ylmethyl-1H-imidazole fumarate salt]", "Ki": "> 100"},
      {"smiles": "FC(F)(F)c1nc2ccccc2n1Cc1ccc(-c2nc(CN3CCCCCC3)co2)cc1", "note": "[Example 120, 1-{4-[4-(azepan-1-ylmethyl)-1,3-oxazol-2-yl]benzyl}-2-(trifluoromethyl)-1H-benzimidazole]", "Ki": "10.1 to 25"},
      {"smiles": "C[C@H]1CCCN1Cc1coc(-c2ccc(Cn3c(C(F)(F)F)nc4ccccc43)cc2)n1", "note": "[Example 118, 1-[4-(4-{[(2S)-2-methylpyrrolidin-1-yl]methyl}-1,3-oxazol-2-yl)benzyl]-2-(trifluoromethyl)-1H-benzimidazole]", "Ki": "10.1 to 25"},
      {"smiles": "F[C@@H]1CCN(Cc2coc(-c3ccc(Cn4cnc5ccccc54)cc3)n2)C1", "note": "[Example 21, 1-[4-(4-{[(3R)-3-fluoropyrrolidin-1-yl]methyl}-1,3-oxazol-2-yl)benzyl]-1H-benzimidazole]", "Ki": "10.1 to 25"},
      {"smiles": "C[C@@H]1CCCN1Cc1coc(-c2ccc(Cn3c(C(F)(F)F)nc4ccccc43)cc2)n1", "note": "[Example 116, 1-[4-(4-{[(2R)-2-methylpyrrolidin-1-yl]methyl}-1,3-oxazol-2-yl)benzyl]-2-(trifluoromethyl)-1H-benzimidazole]", "Ki": "10.1 to 25"},
      {"smiles": "CC1CCCCN1Cc1coc(-c2ccc(Cn3cnc4ccccc43)cc2)n1", "note": "(stereo not drawn) [Example 15, 1-(4-{4-[(2-methylpiperidin-1-yl)methyl]-1,3-oxazol-2-yl}benzyl)-1H-benzimidazole]", "Ki": "50.1 to 100"},
      {"smiles": "C[C@@H]1CCCN1Cc1cnc(-c2ccc(Cn3cnc4ccccc43)cc2)o1", "note": "[Example 108, 1-[4-(5-{[(2R)-2-methylpyrrolidin-1-yl]methyl}-1,3-oxazol-2-yl)benzyl]-1H-benzimidazole]", "Ki": "25.1 to 50"},
      {"smiles": "C[C@H]1CCCN1Cc1cnc(-c2ccc(Cn3cnc4ccccc43)cc2)n1C", "note": "[Example 140, (5)-1-(4-(1-methyl-5-((2-methylpyrrolidin-1-yl)methyl)-1H-imidazol-2-yl)benzyl)-1H-benzo[d]imidazole fumarate salt]", "Ki": "≤ 10"},
      {"smiles": "c1ccc2c(c1)ncn2Cc1ccc(-c2nc(CN3CCCCCC3)co2)cc1", "note": "[Example 14, 1-{4-[4-(azepan-1-ylmethyl)-1,3-oxazol-2-yl]benzyl}-1H-benzimidazole]", "Ki": "≤ 10"},
      {"smiles": "Cn1c(-c2ccc(-c3nc(CN4CCCC4)co3)cc2)nc2ccccc21", "note": "[Example 51, 1-methyl-2-{4-[4-(pyrrolidin-1-ylmethyl)-1,3-oxazol-2-yl]phenyl}-1H-benzimidazole]", "Ki": "≤ 10"},
      {"smiles": "CCN(CC)Cc1coc(-c2ccc(Cn3cnc4ccccc43)cc2)n1", "note": "[Example 12, N-({2-[4-(1H-benzimidazol-1-ylmethyl)phenyl]-1,3-oxazol-4-yl}methyl)-N-ethylethanamine]", "Ki": "≤ 10"},
      {"smiles": "c1ccc2c(c1)cnn2Cc1ccc(-c2nc(CN3CCCC3)co2)cc1", "note": "[Example 88, 1-{4-[4-(pyrrolidin-1-ylmethyl)-1,3-oxazol-2-yl]benzyl}-1H-indazole]", "Ki": "50.1 to 100"},
      {"smiles": "C[C@@H]1CCCN1Cc1coc(-c2ccc(Cn3ncc4ccc(F)cc43)cc2)n1", "note": "[Example 96, 6-fluoro-1-[4-(4-{[(2R)-2-methylpyrrolidin-1-yl]methyl}-1,3-oxazol-2-yl)benzyl]-1H-indazole]", "Ki": "50.1 to 100"},
      {"smiles": "c1ccc2c(c1)ncn2Cc1ccc(-c2nc(CN3CCCCC3)co2)cc1", "note": "[Example 7, 1-{4-[4-(piperidin-1-ylmethyl)-1,3-oxazol-2-yl]benzyl}-1H-benzimidazole]", "Ki": "≤ 10"},
      {"smiles": "CC1CCCN1Cc1csc(-c2ccc(Cn3cnc4ccccc43)cc2)n1", "note": "(stereo not drawn) [Example 72, 1-(4-{4-[(2-methylpyrrolidin-1-yl)methyl]-1,3-thiazol-2-yl}benzyl)-1H-benzimidazole]", "Ki": "≤ 10"},
      {"smiles": "CC1CCCN(Cc2coc(-c3ccc(-n4cnc5ccccc54)cc3)n2)C1", "note": "(stereo not drawn) [Example 46, 1-(4-{4-[(3-methylpiperidin-1-yl)methyl]-1,3-oxazol-2-yl}phenyl)-1H-benzimidazole]", "Ki": "≤ 10"},
      {"smiles": "c1ccc(-c2nc3ccccc3n2Cc2ccc(-c3nc(CN4CCCCC4)co3)cc2)cc1", "note": "[Example 123, 2-phenyl-1-{4-[4-(piperidin-1-ylmethyl)-1,3-oxazol-2-yl]benzyl}-1H-benzimidazole]", "Ki": "≤ 10"},
      {"smiles": "Cn1c(CN2CCCC2)cnc1-c1ccc(-c2ccccc2)cc1", "note": "[Example 146, 2-Biphenyl-4-yl-1-methyl-5-pyrrolidin-1-ylmethyl-1H-imidazole fumarate salt]", "Ki": "> 100"},
      {"smiles": "Cn1c(CN2CCCC2)cnc1-c1ccccc1", "note": "[Example 143, 1-Methyl-2-phenyl-5-pyrrolidin-1-ylmethyl-1H-imidazole fumarate salt]", "Ki": "> 100"},
      {"smiles": "C[C@H]1CCCN1Cc1coc(-c2ccc(Cn3ncc4ccccc43)cc2)n1", "note": "[Example 97, 1-[4-(4-{[(2S)-2-methylpyrrolidin-1-yl]methyl}-1,3-oxazol-2-yl)benzyl]-1H-indazole]", "Ki": "≤ 10"},
      {"smiles": "Cc1oc(-c2ccc(Cn3cnc4ccccc43)cc2)nc1CN1CCCC1", "note": "[Example 28, 1-{4-[5-methyl-4-(pyrrolidin-1-ylmethyl)-1,3-oxazol-2-yl]benzyl}-1H-benzimidazole]", "Ki": "≤ 10"},
      {"smiles": "Fc1ccc2c(cnn2Cc2ccc(-c3nc(CN4CCCC4)co3)cc2)c1", "note": "[Example 100, 5-fluoro-1-{4-[4-(pyrrolidin-1-ylmethyl)-1,3-oxazol-2-yl]benzyl}-1H-indazole]", "Ki": "10.1 to 25"},
      {"smiles": "Cn1c(CN2CCCC2)cnc1-c1ccc(Cn2cnc3ccccc32)cc1", "note": "[Example 139, 1-[4-(1-Methyl-5-pyrrolidin-1-ylmethyl-1H-imidazol-2-yl)-benzyl]-1H-benzoimidazole fumarate salt]", "Ki": "50.1 to 100"}
    ]}
  ]
}
